From patent US20240287047A1, “PESTICIDALLY ACTIVE DIAZINE-AMIDE COMPOUNDS” (SYNGENTA CROP PROTECTION AG, priority 2021, published 2024)

Key:
Type in all cases: in vivo
[1] = tested on: Diabrotica balteata; assay: Example B2: Diabrotica balteata (corn root worm), maize sprouts, L2 larvae; conditions: for percent control (mortality or growth inhibition) at 200 ppm: Diabrotica balteata, 96 h, application rate of 200 ppm, 4 days after infestation, read-out: control in at least one of the two categories (mortality or growth inhibition)
Experimental: Maize sprouts placed onto an agar layer in 24-well microtiter plates were treated with aqueous test solutions prepared from 10,000 ppm DMSO stock solutions by spraying. After drying, the plates were infested with L2 larvae (6 to 10 per well). The samples were assessed for mortality and growth inhibition in comparison to untreated samples 4 days after infestation.

[2] = tested on: Myzus persicae; assay: Example B3: Myzus persicae (green peach aphid) intrinsic activity; conditions: 120 h, test rate of 12 ppm, 5 days after infestation
Experimental: Test compounds prepared from 10′000 ppm DMSO stock solutions were applied by pipette into 24-well microtiter plates and mixed with sucrose solution. The plates were closed with a stretched Parafilm. A plastic stencil with 24 holes was placed onto the plate and infested pea seedlings were placed directly on the Parafilm. The infested plate was closed with a gel blotting paper and another plastic stencil and then turned upside down. The samples were assessed for mortality 5 days after infestation.

[3] = tested on: Spodoptera littoralis; assay: Example B5: Spodoptera littoralis (Egyptian cotton leaf worm), cotton leaf discs, L1 larvae; conditions: foliar, 72 h, application rate of 200 ppm, 3 days after infestation, read-out: control in at least one of the three categories (mortality, anti-feedant effect, or growth inhibition)
Experimental: Cotton leaf discs were placed onto agar in 24-well microtiter plates and sprayed with aqueous test solutions prepared from 10,000 ppm DMSO stock solutions. After drying the leaf discs were infested with five L1 larvae. The samples were assessed for mortality, anti-feeding effect, and growth inhibition in comparison to untreated samples 3 days after infestation. Control of Spodoptera littoralis by a test sample is given when at least one of the categories mortality, anti-feedant effect, and growth inhibition is higher than the untreated sample.

[4] = tested on: Plutella xylostella; assay: Example B4: Plutella xylostella (diamond back moth), artificial diet, eggs; conditions: Plutella xylostella, 192 h; application rate of 200 ppm; 8 days after infestation; read-out: control in at least one of the two categories (mortality or growth inhibition)
Experimental: 24-well microtiter plates with artificial diet were treated with aqueous test solutions prepared from 10′000 ppm DMSO stock solutions by pipetting. After drying, Plutella eggs were pipetted through a plastic stencil onto a gel blotting paper and the plate was closed with it. The samples were assessed for mortality and growth inhibition in comparison to untreated samples 8 days after infestation.

[5] = tested on: Chilo suppressalis; assay: Example B1: Chilo suppressalis (striped rice stemborer), artificial diet, L2 larvae; conditions: 144 h, application rate of 200 ppm, 6 days after infestation, read-out: control in at least one of the three categories (mortality, anti-feedant effect, or growth inhibition)
Experimental: 24-well microtiter plates with artificial diet were treated with aqueous test solutions prepared from 10,000 ppm DMSO stock solutions by pipetting. After drying, the plates were infested with L2 larvae (6-8 per well). The samples were assessed for mortality, anti-feeding effect, and growth inhibition in comparison to untreated samples 6 days after infestation. Control of Chilo suppressalis by a test sample is given when at least one of the categories mortality, anti-feedant effect, and growth inhibition is higher than the untreated sample.

Row | SMILES | percent control (mortality or growth inhibition) at 200 ppm [1] [%] | mortality at 12 ppm [2] [%] | percent control (mortality, anti-feedant effect or growth inhibition) at 200 ppm [3] [%] | percent control (mortality or growth inhibition) at 200 ppm [4] [%] | percent control (mortality, anti-feedant effect or growth inhibition) at 200 ppm [5] [%] | mortality at 50 ppm ([1]; Concentration 50 ppm, Diabrotica balteata (Example B32)) [%]
1 | C[C@H](NC(=O)c1cc(C(F)(F)F)cc(C(C)(C)C#N)c1)c1nccnc1-c1cnccn1 [Compound E7] | ≥ 80 | ≥ 80 | ≥ 80 | ≥ 80 | ≥ 80 | –
2 | C[C@@H](c1nccnc1-c1cnccn1)N(C)C(=O)c1cc(C(F)(F)F)cc(C(C)(C)C#N)c1 [Compound E12, 3-(1-cyano-1-methyl-ethyl)-N-methyl-N-[(1S)-1-(3-pyrazin-2-ylpyrazin-2-yl)ethyl]-5-(trifluoromethyl)benzamide] | ≥ 80 | ≥ 80 | ≥ 80 | – | – | –
3 | CC(NC(=O)c1cc(OC(F)F)cc(OC(F)F)c1)c1nccnc1-c1cnccn1 (stereo not drawn) [Compound P2, 3,5-bis(difluoromethoxy)-N-[1-(3-pyrazin-2-ylpyrazin-2-yl)ethyl]benzamide] | ≥ 80 | ≥ 80 | ≥ 80 | ≥ 80 | ≥ 80 | –
4 | CC(NC(=O)c1cc(C(F)(F)F)cc(C(C)(C)C#N)c1)c1nccnc1-c1cnccn1 (stereo not drawn) [Compound P5, 3-(1-cyano-1-methyl-ethyl)-N-[1-(3-pyrazin-2-ylpyrazin-2-yl)ethyl]-5-(trifluoromethyl)benzamide] | ≥ 80 | – | ≥ 80 | ≥ 80 | ≥ 80 | –
5 | CC(NC(=O)c1cc(Cl)cc(Cl)c1)c1nccnc1-c1cnccn1 (stereo not drawn) [Compound P8, 3,5-dichloro-N-[1-(3-pyrazin-2-ylpyrazin-2-yl)ethyl]benzamide] | ≥ 80 | – | ≥ 80 | ≥ 80 | ≥ 80 | –
6 | CC(NC(=O)c1cc(C(F)F)cc(C(F)(F)F)c1)c1nccnc1-c1cnccn1 (stereo not drawn) [Compound P10, 3-(difluoromethyl)-N-[1-(3-pyrazin-2-ylpyrazin-2-yl)ethyl]-5-(trifluoromethyl)benzamide] | ≥ 80 | – | ≥ 80 | ≥ 80 | ≥ 80 | 100
7 | CC(NC(=O)c1cc(C2CC2)nc(C(F)(F)F)c1)c1nccnc1-c1cnccn1 (stereo not drawn) [Compound P11, 2-cyclopropyl-N-[1-(3-pyrazin-2-ylpyrazin-2-yl)ethyl]-6-(trifluoromethyl)pyridine-4-carboxamide] | ≥ 80 | – | ≥ 80 | ≥ 80 | ≥ 80 | –
8 | CC(NC(=O)c1cc(Cl)cc(I)c1)c1nccnc1-c1cnccn1 (stereo not drawn) [Compound P13, 3-chloro-5-iodo-N-[1-(3-pyrazin-2-ylpyrazin-2-yl)ethyl]benzamide] | ≥ 80 | – | ≥ 80 | ≥ 80 | ≥ 80 | –
9 | CC(NC(=O)c1cc(C(F)(F)F)cc(S(C)(=O)=O)c1)c1nccnc1-c1cnccn1 (stereo not drawn) [Compound P16, 3-methylsulfonyl-N-[1-(3-pyrazin-2-ylpyrazin-2-yl)ethyl]-5-(trifluoromethyl)benzamide] | ≥ 80 | ≥ 80 | ≥ 80 | ≥ 80 | ≥ 80 | –
10 | CC(NC(=O)c1cc(OC(F)F)cc(C(F)(F)F)c1)c1nccnc1-c1cnccn1 (stereo not drawn) [Compound P20] | ≥ 80 | ≥ 80 | ≥ 80 | ≥ 80 | ≥ 80 | –
11 | CC(NC(=O)c1cc(Br)cc(I)c1)c1nccnc1-c1cnccn1 (stereo not drawn) [Compound P24, 3-bromo-5-iodo-N-[1-(3-pyrazin-2-ylpyrazin-2-yl)ethyl]benzamide] | ≥ 80 | – | ≥ 80 | ≥ 80 | ≥ 80 | –
12 | CC(NC(=O)c1cc(Cl)cc(S(C)(=O)=O)c1)c1nccnc1-c1cnccn1 (stereo not drawn) [Compound P26, 3-chloro-5-methylsulfonyl-N-[1-(3-pyrazin-2-ylpyrazin-2-yl)ethyl]benzamide] | ≥ 80 | ≥ 80 | ≥ 80 | ≥ 80 | ≥ 80 | –
13 | CC(NC(=O)c1cc(Cl)nc(C2(C#N)CC2)c1)c1nccnc1-c1cnccn1 (stereo not drawn) [Compound P27, 2-chloro-6-(1-cyanocyclopropyl)-N-[1-(3-pyrazin-2-ylpyrazin-2-yl)ethyl]pyridine-4-carboxamide] | ≥ 80 | – | ≥ 80 | ≥ 80 | ≥ 80 | –
14 | CC(c1nccnc1-c1cnccn1)N(C)C(=O)c1cc(Cl)nc(C2(C#N)CC2)c1 (stereo not drawn) [Compound P29, 2-chloro-6-(1-cyanocyclopropyl)-N-methyl-N-[1-(3-pyrazin-2-ylpyrazin-2-yl)ethyl]pyridine-4-carboxamide] | ≥ 80 | – | ≥ 80 | ≥ 80 | ≥ 80 | –
15 | CC(NC(=O)c1cc(OC(F)(F)F)cc(C2(C#N)CC2)c1)c1nccnc1-c1cnccn1 (stereo not drawn) [Compound P31] | ≥ 80 | ≥ 80 | ≥ 80 | ≥ 80 | ≥ 80 | –
16 | CC(NC(=O)c1cc(OC(F)F)cc(C2(C#N)CC2)c1)c1nccnc1-c1cnccn1 (stereo not drawn) [Compound P32, 3-(1-cyanocyclopropyl)-5-(difluoromethoxy)-N-[1-(3-pyrazin-2-ylpyrazin-2-yl)ethyl]benzamide] | – | ≥ 80 | ≥ 80 | – | ≥ 80 | –
17 | CC(NC(=O)c1cc(I)cc(C(F)(F)F)c1)c1nccnc1-c1cnc(Cl)cn1 (stereo not drawn) [Compound P34, N-[1-[3-(5-chloropyrazin-2-yl)pyrazin-2-yl]ethyl]-3-iodo-5-(trifluoromethyl)benzamide] | ≥ 80 | – | ≥ 80 | ≥ 80 | ≥ 80 | –
18 | CC(NC(=O)c1cc(C(F)(F)F)cc(S(C)(=O)=O)c1)c1nccnc1-c1cnc(Cl)cn1 (stereo not drawn) [Compound P35, N-[1-[3-(5-chloropyrazin-2-yl)pyrazin-2-yl]ethyl]-3-methylsulfonyl-5-(trifluoromethyl)benzamide] | ≥ 80 | – | ≥ 80 | ≥ 80 | ≥ 80 | –
19 | CC(NC(=O)c1cc(C(F)(F)F)cc(C(C)(C)C#N)c1)c1nccnc1-c1cnc(Cl)cn1 (stereo not drawn) [Compound P37, N-[1-[3-(5-chloropyrazin-2-yl)pyrazin-2-yl]ethyl]-3-(1-cyano-1-methyl-ethyl)-5-(trifluoromethyl)benzamide] | ≥ 80 | – | ≥ 80 | ≥ 80 | ≥ 80 | –
